The record followed here is ChEMBL document CHEMBL5532682, “Recent advances of tryptanthrin and its derivatives as potential anticancer agents” (RSC Med Chem, 2024).

pIC50: −log10 of the molar value.

Common to all, as to type: functional, cell-based
One assay deals with CT26. Description: Antiproliferative activity against mouse CT26 cells incubated for 48 hrs. Particulars: CT26, 48 h.
A further assay deals with HeLa. In words: Antiproliferative activity against human HeLa cells incubated for 48 hrs.
In assay [1] the test system is K562. Description: Antiproliferative activity against human K562 cells.
The test system of assay [2] is K562. In words: Antiproliferative activity against human K562 cells incubated for 48 hrs. Particulars: K562, 48 h.

One may read the pIC50 as −log10 of the IC50, conventionally taken in molar units. In the case of `CC(C)NC(=O)[C@@H]1[C@@]2(c3ccccc3)[C@H]3CCCN3[C@@]3(c4ccccc4-n4c3nc3ccccc3c4=O)[C@@]12c1ccccc1`, the negative logarithm of the IC50 (pIC50) with CT26 was less than 4.30; with HeLa, less than 4.30; with K562 [1] it was 5.32; with K562 [2], 5.32.
